Results taken from patent US9156801B2, “2-substituted oleanolic acid derivative, method preparing for same, and application thereof” (HANGZHOU BENSHENG PHARMACEUTICAL CO., LTD., priority 2011, dated 2015).
Values after ≈ are worked out from the molar mass of the structure shown.

Key:
Hep G2 cell line = test: solid tumor cell growth inhibition, MTT; assay type: cell-based, human; settings: Homo sapiens; for inhibition at 16 µg/mL: HepG2, 72 h, Hep G2, 16 μg/mL compound, 72 h, read-out: IR (cell proliferation inhibition rate); for IC50: HepG2, Hep G2, 72 h
Description: (§1) Hep-2 (laryngeal carcinoma), A549 (human lung cancer), CaES-17 (esophageal cancer cell), PC-3 (prostate cancer), CNE (nasopharyngeal carcinoma cell), and SK-OV-3 (ovarian cancer cell), all of which are purchased from China Center For Type Culture Collection; RKO (human colon adenocarcinoma cell), MGC 803 (human gastric cancer cell), MG63 (osteosarcoma) and U87 MG (malignant glioma cell), all of which are purchased from Fuxiang Bio-tech Co. Ltd., Shanghai, China; PANC-1 (pancreatic cancer), Hep G2 (human liver cancer cell), Becap37 (human breast cancer cell), and Hela (human cervical cancer cell), all of which are donated by Cancer Research Institute of Zhejiang University, China.
(§2) Obtaining 4000 well-growing human solid tumor cells and inoculating them into wells of a 96-well cell culture plate. The culture medium is DMEM High Glucose cell culture medium containing 10% fetal bovine serum. The plate is placed in a carbon dioxide cell incubator (5% CO2) at 37° C. for 24 hours. After adding the 2-substituted oleanolic acid derivatives of different concentrations and mixing uniformly, the plate is placed in a carbon dioxide cell incubator (5% CO2) at 37° C. and incubated for 72 hours. Then the relative number of the living cells is determined by MTT method. In this experiment, the cell proliferation inhibition rate in control group (not treated with any compound) is set as 0%.

K562/adr cell line = test: leukemia cell growth inhibition, MTT; assay type: cell-based; settings: Homo sapiens, 72 h; for IC50: K562/Adr; for inhibition at 16 µg/mL: K562/adr, 16 μg/mL compound, read-out: IR (cell proliferation inhibition rate)
Text: (§3) Leukemia cell lines: leukemia cell lines: K562/adr (drug-resistant, chronic myeloid leukemia, CML), NB4 (acute promyelocytic leukemia, AML), Kasumi-1 (acute myeloid leukemia M2 type, AML-M2), Jurkat (acute lymphoblastic leukemia, ALL), all of which are donated by Cancer Research Institute of Zhejiang University, China; and H9 (acute lymphoblastic leukemia, ALL), which is purchased from China Center for Type Culture Collection (CCTCC).
(§4) Obtaining 6000 well-growing leukemia cells and inoculating them into wells of a 96-well cell culture plate. The culture medium is the 1640 cell culture medium containing 10% fetal bovine serum. After adding the 2-substituted oleanolic acid derivatives of different concentrations and mixing uniformly, placing the plate in a carbon dioxide cell incubator (5% CO2) at 37° C. and incubated for 72 hours. Then the relative number of viable cells is determined by MTT method. In this experiment, cell proliferation inhibition rate in control group (not treated with any compound) is set as 0%.

Jurkat cell line = test: leukemia cell growth inhibition, MTT; assay type: cell-based; settings: Homo sapiens, 72 h; for inhibition at 16 µg/mL: 16 μg/mL compound, read-out: IR (cell proliferation inhibition rate)
Text: as §3, §4

Kasumi-1 cell line = test: leukemia cell growth inhibition, MTT; assay type: cell-based; settings: Homo sapiens; for inhibition at 16 µg/mL: Kasumi-1, 16 μg/mL compound, 72 h, read-out: IR (cell proliferation inhibition rate); for IC50: Kasumi-1, 72 h
Text: as §3, §4

H9 cell line = test: leukemia cell growth inhibition, MTT; assay type: cell-based; settings: Homo sapiens; for IC50: H9, 72 h; for inhibition at 16 µg/mL: H9, 16 μg/mL compound, 72 h, read-out: IR (cell proliferation inhibition rate)
Text: as §3, §4

NB4 cell line = test: leukemia cell growth inhibition, MTT; assay type: cell-based; settings: Homo sapiens, NB-4; for inhibition at 16 µg/mL: NB4, 16 μg/mL compound, 72 h, read-out: IR (cell proliferation inhibition rate); for IC50: NB4, 72 h
Text: as §3, §4

A549 cell line = test: solid tumor cell growth inhibition, MTT; assay type: cell-based; settings: Homo sapiens; for IC50: A549, 72 h; for inhibition at 16 µg/mL: A549, 16 μg/mL compound, 72 h, read-out: IR (cell proliferation inhibition rate)
Description: as §1, §2

MG-63 cell line = test: solid tumor cell growth inhibition, MTT; assay type: cell-based; settings: Homo sapiens; for IC50: MG-63, 72 h; for inhibition at 16 µg/mL: MG-63, 16 μg/mL compound, 72 h, read-out: IR (cell proliferation inhibition rate)
Description: as §1, §2

Becap37 cell line = test: solid tumor cell growth inhibition, MTT; assay type: cell-based; settings: Homo sapiens; for inhibition at 16 µg/mL: Becap37, 16 μg/mL compound, 72 h, read-out: IR (cell proliferation inhibition rate); for IC50: Becap37, 72 h
Description: as §1, §2

SK-OV-3 cell line = test: solid tumor cell growth inhibition, MTT; assay type: cell-based; settings: Homo sapiens; for IC50: SK-OV-3, 72 h; for inhibition at 16 µg/mL: SK-OV-3, 16 μg/mL compound, 72 h, read-out: IR (cell proliferation inhibition rate)
Description: as §1, §2

PC-3 cell line = test: solid tumor cell growth inhibition, MTT; assay type: cell-based; settings: Homo sapiens; for IC50: PC-3, 72 h; for inhibition at 16 µg/mL: PC-3, 16 μg/mL compound, 72 h, read-out: IR (cell proliferation inhibition rate)
Description: as §1, §2

PANC-1 cell line = test: solid tumor cell growth inhibition, MTT; assay type: cell-based; settings: Homo sapiens; for IC50: PANC-1, 72 h; for inhibition at 16 µg/mL: PANC-1, 16 μg/mL compound, 72 h, read-out: IR (cell proliferation inhibition rate)
Description: as §1, §2

Hep-2 cell line = test: solid tumor cell growth inhibition, MTT; assay type: cell-based; settings: Homo sapiens; for IC50: HEp-2, 72 h; for inhibition at 16 µg/mL: Hep-2, 16 μg/mL compound, 72 h, read-out: IR (cell proliferation inhibition rate)
Description: as §1, §2

RKO cell line = test: solid tumor cell growth inhibition, MTT; assay type: cell-based; settings: Homo sapiens, 72 h; for inhibition at 16 µg/mL: 16 μg/mL compound, read-out: IR (cell proliferation inhibition rate)
Description: as §1, §2

MGC 803 cell line = test: solid tumor cell growth inhibition, MTT; assay type: cell-based; settings: Homo sapiens; for inhibition at 16 µg/mL: MGC 803, 16 μg/mL compound, 72 h, read-out: IR (cell proliferation inhibition rate); for IC50: MGC 803, 72 h
Description: as §1, §2

CaES-17 cell line = test: solid tumor cell growth inhibition, MTT; assay type: cell-based; settings: Homo sapiens, CaEs17; for inhibition at 16 µg/mL: CaES-17, 16 μg/mL compound, 72 h, read-out: IR (cell proliferation inhibition rate); for IC50: CaES-17, 72 h
Description: as §1, §2

U87 MG cell line = test: solid tumor cell growth inhibition, MTT; assay type: cell-based; settings: Homo sapiens, U-87 MG, 72 h; for inhibition at 16 µg/mL: 16 μg/mL compound, read-out: IR (cell proliferation inhibition rate)
Description: as §1, §2

Hela cell line = test: solid tumor cell growth inhibition, MTT; assay type: cell-based; settings: Homo sapiens, 72 h; for IC50: HeLa; for inhibition at 16 µg/mL: Hela, 16 μg/mL compound, read-out: IR (cell proliferation inhibition rate)
Description: as §1, §2

CNE cell line = test: solid tumor cell growth inhibition, MTT; assay type: cell-based; settings: Homo sapiens, 72 h; for inhibition at 16 µg/mL: 16 μg/mL compound, read-out: IR (cell proliferation inhibition rate)
Description: as §1, §2

RPMI8226 cell line = test: multiple myeloma cell growth inhibition, MTT; assay type: cell-based; settings: Homo sapiens, RPMI-8226; for inhibition at 16 µg/mL: RPMI8226, 16 μg/mL compound, 72 h, read-out: IR (cell proliferation inhibition rate); for IC50: RPMI8226, 72 h
Description: Multiple myeloma cell lines: RPMI8226 (multiple myeloma), purchased from Fuxiang Bio-tech Co. Ltd., Shanghai, China.
Obtaining 6000 well-growing cells as above and inoculating them into wells of a 96-well cell culture plate. The culture medium is the 1640 cell culture medium containing 10% fetal bovine serum. After adding the 2-substituted oleanolic acid derivatives of different concentrations and mixing uniformly, placing the plate in a carbon dioxide cell incubator (5% CO2) at 37° C. and incubated for 72 hours. Then the relative number of viable cells is determined by MTT method. In this experiment, cell proliferation inhibition rate in control group (not treated with any compound) is set as 0%.

IC50 (Hep G2 cell line) [mg/L]	IC50 (K562/adr cell line) [mg/L]	IC50 (Jurkat cell line) [mg/L]	IC50 (Kasumi-1 cell line) [mg/L]	IC50 (H9 cell line) [mg/L]	IC50 (NB4 cell line) [mg/L]	IC50 (A549 cell line) [mg/L]	IC50 (MG-63 cell line) [mg/L]	IC50 (Becap37 cell line) [mg/L]	IC50 (SK-OV-3 cell line) [mg/L]	SMILES	inhibition at 16 µg/mL (Hep G2 cell line) [%]	inhibition at 16 µg/mL (K562/adr cell line) [%]	inhibition at 16 µg/mL (Jurkat cell line) [%]	inhibition at 16 µg/mL (Kasumi-1 cell line) [%]	inhibition at 16 µg/mL (H9 cell line) [%]	inhibition at 16 µg/mL (NB4 cell line) [%]	inhibition at 16 µg/mL (A549 cell line) [%]	inhibition at 16 µg/mL (MG-63 cell line) [%]	inhibition at 16 µg/mL (Becap37 cell line) [%]	inhibition at 16 µg/mL (SK-OV-3 cell line) [%]	also measured
> 16	4.12 (≈ 6.9 µM)	> 16	> 16	> 16	7.32 (≈ 12.3 µM)	> 16	> 16	> 16	> 16	CCN(CC)CCNC(=O)C1C[C@@]2(C)C(CC[C@]3(C)C2CC=C2C4CC(C)(C)CC[C@]4(C(=O)O)CC[C@]23C)C(C)(C)C1=O (some centres unmarked) [BS-OA-106]	33.6	98.2	43.2	43	44.6	86.6	31.5	4.9	27.5	-17	IC50 (PC-3 cell line): > 16 mg/L; inhibition at 16 µg/mL (PC-3 cell line): -6.4%; IC50 (PANC-1 cell line): > 16 mg/L; inhibition at 16 µg/mL (PANC-1 cell line): 16.9%; IC50 (Hep-2 cell line): > 16 mg/L; inhibition at 16 µg/mL (Hep-2 cell line): 3.8%; inhibition at 16 µg/mL (RKO cell line): 5.3%; IC50 (RKO cell line): > 16 mg/L; inhibition at 16 µg/mL (MGC 803 cell line): 13.4%; IC50 (MGC 803 cell line): > 16 mg/L; inhibition at 16 µg/mL (CaES-17 cell line): 10%; IC50 (CaES-17 cell line): > 16 mg/L; inhibition at 16 µg/mL (U87 MG cell line): 7.2%; IC50 (U87 MG cell line): > 16 mg/L; IC50 (Hela cell line): > 16 mg/L; inhibition at 16 µg/mL (Hela cell line): 34.6%; inhibition at 16 µg/mL (CNE cell line): 44.3%; IC50 (CNE cell line): > 16 mg/L; inhibition at 16 µg/mL (RPMI8226 cell line): 68.3%; IC50 (RPMI8226 cell line): 12.2 mg/L (≈ 20.5 µM)
> 16	6.52 (≈ 11 µM)	> 16	> 16	> 16	10.6 (≈ 17.8 µM)	> 16	12.6 (≈ 21.1 µM)	> 16	> 16	CC1(C)CC[C@]2(C(=O)O)CC[C@]3(C)C(=CC[C@@H]4[C@@]5(C)CC(C(=O)NCCN6CCCC6)C(=O)C(C)(C)[C@@H]5CC[C@]43C)[C@@H]2C1 (some centres unmarked) [BS-OA-105]	29.5	85	37.5	36.6	31.5	74.7	24	54.6	43.7	5	IC50 (PC-3 cell line): > 16 mg/L; inhibition at 16 µg/mL (PC-3 cell line): 18.4%; IC50 (PANC-1 cell line): > 16 mg/L; inhibition at 16 µg/mL (PANC-1 cell line): 16.9%; IC50 (Hep-2 cell line): > 16 mg/L; inhibition at 16 µg/mL (Hep-2 cell line): 28.4%; inhibition at 16 µg/mL (RKO cell line): 8.6%; IC50 (RKO cell line): > 16 mg/L; inhibition at 16 µg/mL (MGC 803 cell line): 29.2%; IC50 (MGC 803 cell line): > 16 mg/L; inhibition at 16 µg/mL (CaES-17 cell line): 45%; IC50 (CaES-17 cell line): 18.9 mg/L (≈ 31.7 µM); inhibition at 16 µg/mL (U87 MG cell line): 61.7%; IC50 (U87 MG cell line): 2.31 mg/L (≈ 3.88 µM); IC50 (Hela cell line): 7.29 mg/L (≈ 12.3 µM); inhibition at 16 µg/mL (Hela cell line): 68.1%; inhibition at 16 µg/mL (CNE cell line): 54.5%; IC50 (CNE cell line): 10.6 mg/L (≈ 17.8 µM); inhibition at 16 µg/mL (RPMI8226 cell line): 81.8%; IC50 (RPMI8226 cell line): 10.5 mg/L (≈ 17.7 µM)
